According to patent US12410171B2, “Tropomyosin receptor kinase (TRK) degradation compounds and methods of use” (Cullgen (Shanghai), Inc., priority 2020, dated 2025):
Read-outs that look alike come from different tables or passages of the source.

How the values were obtained:
[1] = system: KM12 cells; experiment: KM12 cell viability (CellTiter-Glo); assay type: cell-based; conditions: for IC50: Homo sapiens
Procedure, shortened: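 Three-day exposure of KM12 cells (5000/well, RPMI 1640 with 10% FBS, 37 °C, 5% CO2) to compound dilution series, 3-fold over 8 or 11 points (top 1000 nM in the 8-point format) or 2-fold over 12. CellTiter-Glo readout, with IC50 fitted by nonlinear least-squares regression.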

[2] = molecular target: T1, TPM3-TRKA fusion protein (Homo sapiens, UniProt P04629); experiment: TPM3-TRKA fusion protein levels in KM12 cells (Western blot); assay type: cell-based; conditions: read-out: Degradation (at 10 nM)
T1 construct: The resulted chimeric proteins always retain the kinase domain of TRK proteins; TPM3 (fusion partner, N-terminal part of tropomyosin alpha-3, P06753); endogenous in cells; host or cells: KM12 colon cancer cells; the other entry of the earlier key: TPM3 (P06753, Tropomyosin alpha-3 chain)
Procedure, shortened: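 TPM3-TRKA levels were assessed by Western blot with chemiluminescent detection and band densitometry, after SDS-PAGE of BCA-normalized RIPA lysates. Before lysis, KM12 cells received DMSO, compounds or matched control compounds at concentrations including 0.1, 1, 10 and 100 nM and 0.4–30 nM. Exposures lasted 4 h, 8–16 h or 16 h.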

[3] = 72 h, KM12 cell viability, CellTiter-Glo, three days treatment, read-out: IC50
[4] = 16 h, TPM3-TRKA degradation in KM12 cells at 10 nM compound, category of percentage degradation
[5] = 72 h, KM12 cell viability, 11-point 3-fold serial dilution, 3 days, CellTiter-Glo, read-out: IC50
[6] = 16 h, TPM3-TRKA degradation in KM12 cells at 10 nM

T1 sequence (P04629 with tags, fused parts or gaps): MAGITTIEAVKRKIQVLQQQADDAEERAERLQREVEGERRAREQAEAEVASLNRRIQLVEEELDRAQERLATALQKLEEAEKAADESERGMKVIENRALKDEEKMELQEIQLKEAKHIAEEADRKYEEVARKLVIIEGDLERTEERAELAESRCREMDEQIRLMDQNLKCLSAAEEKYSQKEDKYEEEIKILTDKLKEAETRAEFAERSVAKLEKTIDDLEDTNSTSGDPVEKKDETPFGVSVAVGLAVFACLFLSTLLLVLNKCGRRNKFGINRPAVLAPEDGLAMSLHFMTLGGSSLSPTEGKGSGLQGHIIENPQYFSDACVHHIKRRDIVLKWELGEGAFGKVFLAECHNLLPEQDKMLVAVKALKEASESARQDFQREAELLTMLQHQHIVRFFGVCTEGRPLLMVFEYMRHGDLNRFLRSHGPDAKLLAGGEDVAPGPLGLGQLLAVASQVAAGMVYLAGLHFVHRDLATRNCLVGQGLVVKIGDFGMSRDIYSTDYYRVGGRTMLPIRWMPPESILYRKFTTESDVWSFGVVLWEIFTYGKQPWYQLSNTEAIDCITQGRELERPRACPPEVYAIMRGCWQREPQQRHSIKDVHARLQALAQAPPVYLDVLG

Row | SMILES | percent degradation of TPM3-TRKA protein at 0.01 µM [2, 4] [%] | IC50 [1, 3] [nM] | further results
1 | Cn1c(=O)n(C2CCC(=O)NC2=O)c2ccc(N3CC(CN4CCN(c5cccc(-c6cnc7ccc(N8CCC[C@@H]8c8cccc(F)c8)nn67)n5)CC4)C3)cc21 (stereo partly drawn) [TR-250, 3-(5-(3-((4-(6-(6-((R)-2-(3-fluorophenyl)pyrrolidin-1-yl)imidazo[1,2-b]pyridazin-3-yl)pyridin-2-yl)piperazin-1-yl)methyl)azetidin-1-yl)-3-methyl-2-oxo-2,3-dihydro-1H-benzo[d]imidazol-1-yl)piperidine-2,6-dione] | > 80 | 16.1 | 
2 | Cn1c(=O)n(C2CCC(=O)NC2=O)c2ccc(NCCCN3CCN(c4cccc(-c5cnc6ccc(N7CCC[C@@H]7c7cccc(F)c7)nn56)n4)CC3)cc21 (stereo partly drawn) [TR-221, 3-[5-[3-[4-[6-[6-[(2R)-2-(3-fluorophenyl)pyrrolidin-1-yl]imidazo[1,2-b]pyridazin-3-yl]-2-pyridyl]piperazin-1-yl]propylamino]-3-methyl-2-oxo-benzimidazol-1-yl]piperidine-2,6-dione] | > 80 | 7.8 | 
3 | NC(=O)C1CCN(c2cc(CN3CCN(C(=O)CCNc4cccc5c4C(=O)N(C4CCC(=O)NC4=O)C5=O)CC3)ccc2NC(=O)c2coc(N3CCOCC3)n2)CC1 (stereo not drawn) [CPD-479, N-(2-(4-carbamoylpiperidin-1-yl)-4-((4-(3-((2-(2,6-dioxopiperidin-3-yl)-1,3-dioxoisoindolin-4-yl)amino)propanoyl)piperazin-1-yl)methyl)phenyl)-2-morpholinooxazole-4-carboxamide] |  |  | IC50 [1, 5]: 132 nM; percent degradation of TPM3-TRKA protein at 0.01 µM [2, 6]: 50 to 80%
4 | O=C1CCC(N2C(=O)c3ccc(CN4CC(N5CCN(c6ccc(C(=O)Nc7n[nH]c8ccc(Cc9cc(F)cc(F)c9)cc78)cc6)CC5)C4)cc3C2=O)C(=O)N1 (stereo not drawn) [TR-261, N-(5-(3,5-Difluorobenzyl)-1H-indazol-3-yl)-4-(4-(1-((2-(2,6-dioxopiperidin-3-yl)-1,3-dioxoisoindolin-S-yl)methyl)azetidin-3-yl)piperazin-1-yl)benzamide] |  |  | IC50 ([1]; KM12, 72 h): 366 nM; percent degradation of TPM3-TRKA protein at 0.01 µM ([2]; KM12, 16 h): 50 to 80%
5 | O=C1CCC(N2C(=O)c3ccc(CN4CC(CN5CCN(c6cccc(-c7cnc8ccc(N9CCC[C@@H]9c9cccc(F)c9)nn78)n6)CC5)C4)cc3C2=O)C(=O)N1 (stereo partly drawn) [TR-248, 2-(2,6-Dioxopiperidin-3-yl)-5-((3-((4-(6-(6-((R)-2-(3-fluorophenyl)pyrrolidin-1-yl)imidazo[1,2-b]pyridazin-3-yl)pyridin-2-yl)piperazin-1-yl)methyl)azetidin-1-yl)methyl)isoindoline-1,3-dione] | > 80 | 27.4 | 
6 | O=C(CN1CCN(c2cccc(-c3cnc4ccc(N5CCC[C@@H]5c5cccc(F)c5)nn34)n2)CC1)NCCOCCNc1ccc2c(c1)C(=O)N(C1CCC(=O)NC1=O)C2=O (stereo partly drawn) [TR-135, N-(2-(2-((2-(2,6-dioxopiperidin-3-yl)-1,3-dioxoisoindolin-5-yl)amino)ethoxy)ethyl)-2-(4-(6-(6-((R)-2-(3-fluorophenyl)pyrrolidin-1-yl)imidazo[1,2-b]pyridazin-3-yl)pyridin-2-yl)piperazin-1-yl)acetamide] | > 80 | 0.9 | 
7 | Cn1c(=O)n(C2CCC(=O)NC2=O)c2cccc(OCCN3CCN(c4cccc(-c5cnc6ccc(N7CCC[C@@H]7c7cccc(F)c7)nn56)n4)CC3)c21 (stereo partly drawn) [TR-244, 3-(4˜ (2-(4-(6-(6-((R)-2-(3-Fluorophenyl)pyrrolidin-1-yl)imidazo[1,2-b]pyridazin-3-yl)pyridin-2-yl)piperazin-1-yl)ethoxy)-3-methyl-2-oxo-2,3-dihydro-1H-benzo[d]imidazol-1-yl)piperidine-2,6-dione] | < 50 | 298 | 
8 | NC(=O)C1CCN(c2cc(CN3CCN(C(=O)CCCCCCNc4cccc5c4C(=O)N(C4CCC(=O)NC4=O)C5=O)CC3)ccc2NC(=O)c2coc(N3CCOCC3)n2)CC1 (stereo not drawn) [CPD-483, N-(2-(4-carbamoylpiperidin-1-yl)-4-((4-(7-((2-(2,6-dioxopiperidin-3-yl)-1,3-dioxoisoindolin-4-yl)amino)heptanoyl)piperazin-1-yl)methyl)phenyl)-2-morpholinooxazole-4-carboxamide] |  |  | IC50 [1, 5]: 5.5 nM; percent degradation of TPM3-TRKA protein at 0.01 µM [2, 6]: > 80%
9 | O=C1CCC(N2C(=O)c3ccc(N4CC(C(=O)N5CCN(c6cccc(-c7cnc8ccc(N9CCC[C@@H]9c9cccc(F)c9)nn78)n6)CC5)C4)cc3C2=O)C(=O)N1 (stereo partly drawn) [TR-211, 2-(2,6-dioxopiperidin-3-yl)-5-(3-(4-(6-(6-((R)-2-(3-fluorophenyl)pyrrolidin-1-yl)imidazo[1,2-b]pyridazin-3-yl)pyridin-2-yl)piperazine-1-carbonyl)azetidin-1-yl)isoindoline-1,3-dione] | > 80 | 2 | 
10 | O=C1CCC(N2C[C@H](c3ccc(C#CCN4CCN(c5cccc(-c6cnc7ccc(N8CCCC8c8cccc(F)c8)nn67)n5)CC4)cc3)OC2=O)C(=O)N1 (stereo in doubt) [TR-224, 3-((S)-5-(4-(3-(4-(6-(6-((S)-2-(3-fluorophenyl)pyrrolidin-1-yl)imidazo[1,2-b]pyridazin-3-yl)pyridin-2-yl)piperazin-1-yl)prop-1-yn-1-yl)phenyl)-2-oxooxazolidin-3-yl)piperidine-2,6-dione] | > 80 | 8.7 | 
11 | O=C1CCC(N2C(=O)c3cccc(NCCOCCOCCOCCC(=O)N4CCN(c5ccc(C(=O)Nc6n[nH]c7ccc(Cc8cc(F)cc(F)c8)cc67)c(NC6CCOCC6)c5)CC4)c3C2=O)C(=O)N1 (stereo not drawn) [CPD-057, N—(S-(3,5-Difluorobenzyl)-1H-indazol-3-yl)-4-(4-(3-(2-(2-(2-((2-(2,6-dioxopiperidin-3-yl)-1,3-dioxoisoindolin-4-yl)amino)ethoxy)ethoxy)ethoxy)propanoyl)piperazin-1-yl)-2-((tetrahydro-2H-pyran-4-yl)amino)benzamide] | > 80 |  | viability of KM12 cells ([1]; 500 nM, 12-point 2-fold serial dilution, 3 days (FIG. 4A)): inhibited the viability of KM12 cells
12 | NC(=O)C1CCN(c2cc(CN3CCN(C(=O)CCCCCNc4cccc5c4C(=O)N(C4CCC(=O)NC4=O)C5=O)CC3)ccc2NC(=O)c2coc(N3CCOCC3)n2)CC1 (stereo not drawn) [CPD-482, N-(2-(4-carbamoylpiperidin-1-yl)-4-((4-(6-((2-(2,6-dioxopiperidin-3-yl)-1,3-dioxoisoindolin-4-yl)amino)hexanoyl)piperazin-1-yl)methyl)phenyl)-2-morpholinooxazole-4-carboxamide] |  |  | IC50 [1, 5]: 4.7 nM; percent degradation of TPM3-TRKA protein at 0.01 µM [2, 6]: > 80%

Second part, led by results:

Row | percent degradation of TPM3-TRKA protein at 0.01 µM [2, 4] [%] | SMILES | IC50 [1, 3] [nM] | further results
13 | > 80 | O=C1CCC(N2C(=O)c3ccc(C4CN(CCN5CCN(c6cccc(-c7cnc8ccc(N9CCC[C@@H]9c9cccc(F)c9)nn78)n6)CC5)C4)cc3C2=O)C(=O)N1 (stereo partly drawn) [TR-292, 2-(2,6-dioxopiperidin-3-yl)-5-(1-(2-(4-(6-(6-((R)-2-(3-fluorophenyl)pyrrolidin-1-yl)imidazo[1,2-b]pyridazin-3-yl)pyridin-2-yl)piperazin-1-yl)ethyl)azetidin-3-yl)isoindoline-1,3-dione] | 8.2 | 
14 | > 80 | O=C1CCC(N2C(=O)c3ccc(C4CN(C5CCN(c6ccc(C(=O)Nc7n[nH]c8ccc(Cc9cc(F)cc(F)c9)cc78)c(NC7CCOCC7)c6)CC5)C4)cc3C2=O)C(=O)N1 (stereo not drawn) [TR-339, N-(5-(3,5-difluorobenzyl)-1H-indazol-3-yl)-4-(4-(3-(2-(2,6-dioxopiperidin-3-yl)-1,3-dioxoisoindolin-5-yl)azetidin-1-yl)piperidin-1-yl)-2-((tetrahydro-2H-pyran-4-yl)amino)benzamide] | 8.1 | 
15 | > 80 | O=C1CCC(N2C(=O)c3ccc(CN4CCC(N5CCN(c6ccc(C(=O)Nc7n[nH]c8ccc(Cc9cc(F)cc(F)c9)cc78)c(NC7CCOCC7)c6)CC5)C4)cc3C2=O)C(=O)N1 (stereo not drawn) [TR-285, N-(5-(3,5-difluorobenzyl)-1H-indazol-3-yl)-4-(4-(1-((2-(2,6-dioxopiperidin-3-yl)-1,3-dioxoisoindolin-5-yl)methyl)pyrrolidin-3-yl)piperazin-1-yl)-2-((tetrahydro-2H-pyran-4-yl)amino)benzamide] | 9.7 | 
16 | 50 to 80 | O=C1CCC(n2nnc3cccc(N4CC(CCN5CCN(c6cccc(-c7cnc8ccc(N9CCC[C@@H]9c9cccc(F)c9)nn78)n6)CC5)C4)c3c2=O)C(=O)N1 (stereo partly drawn) [TR-297] | 39 | 
17 | 50 to 80 | O=C1CCC(n2nnc3cccc(N4CC(CN5CCN(c6cccc(-c7cnc8ccc(N9CCC[C@@H]9c9cccc(F)c9)nn78)n6)CC5)C4)c3c2=O)C(=O)N1 (stereo partly drawn) [TR-296] | 22 | 
18 | > 80 | O=C1CCC(N2Cc3cc(N4CC(N5CCN(c6cccc(-c7cnc8ccc(N9CCC[C@@H]9c9cccc(F)c9)nn78)n6)CC5)C4)ccc3C2=O)C(=O)N1 (stereo partly drawn) [TR-331, 3-(5-(3-(4-(6-(6-((R)-2-(3-fluorophenyl)pyrrolidin-1-yl)imidazo[1,2-b]pyridazin-3-yl)pyridin-2-yl)piperazin-1-yl)azetidin-1-yl)-1-oxoisoindolin-2-yl)piperidine-2,6-dione] | 1.6 | 
